Data: patent US20240245711A1, “A 19-NOR C3,3-DISUBSTITUTED C21-N-PYRAZOLYL STEROID FOR THE TREATMENT OF MAJOR DEPRESSIVE DISORDER” (Sage Therapeutics, Inc., priority 2021, published 2024)

Test system: post-menopausal women with MDD
Experiment: Post hoc analysis of the Example 1 study: post-menopausal women with MDD
Assay type: in vivo, human
From the text: Hormonal changes during early menopause can often affect the metabolism of antidepressants (ADTs). Postmenopausal/older women may not respond well to ADTs. This example presents a post hoc analysis of the study described in Example 1 in post-menopausal women with MDD.
The study described in Example 1 enrolled patients with MDD, aged 18-75 years, with HAMD-17≥20 and a MADRS total score ≥28 to 1 of 2 cohorts: 30-mg Cohort and 50-mg Cohort. HAMD-17 responders (≥50% reduction from baseline) at Day 15 continued in study and were assessed for repeat-treatment eligibility. Post-menopausal women aged ≥45 were identified based on follicle stimulating hormone >40 at baseline (central lab data) and if medical history coded terms contained ‘menopause’.

[1] = Day 15, post-menopausal patients

Question: `C[C@@]1(O)CC[C@H]2[C@H](CC[C@@H]3[C@@H]2CC[C@]2(C)[C@@H](C(=O)Cn4cc(C#N)cn4)CC[C@@H]32)C1` [Compound (1), 1-(2-((3R,5R,8R,9R,10S,13S,14S,17S)-3-hydroxy-3,13-dimethylhexadecahydro-1H-cyclopenta[a]phenanthren-17-yl)-2-oxoethyl)-1H-pyrazole-4-carbonitrile] was tested. Which “Patients not requiring additional courses during their time in the study” value (106/152 post-menopausal patients who responded to and completed treatment cycle 1) did it give?
Answer: 42.5%

Question: What about the HAMD-17 remission rate [1] of the same molecule?
Answer: 39.6%

Question: And the HAMD-17 response rate [1]?
Answer: 75.7%

Question: What about the “Mean (SD) CFB in HAMD-17” value [1] of the same molecule?
Answer: −16.0 (7.00)

Question: And the TEAE diarrhea (post-menopausal patients)?
Answer: 7.9%

Question: What about the TEAE dizziness (post-menopausal patients) of the same molecule?
Answer: 11.8%

Question: And the TEAE dry mouth (post-menopausal patients)?
Answer: 7.2%

Question: And the TEAE headache (post-menopausal patients)?
Answer: 13.2%

Question: And the TEAE insomnia (post-menopausal patients)?
Answer: 6.6%

Question: And the TEAE sedation (post-menopausal patients)?
Answer: 6.6%

Question: And the TEAE somnolence (post-menopausal patients)?
Answer: 12.5%

Question: What about the “TEAE upper respiratory infection” value (post-menopausal patients) of the same molecule?
Answer: 7.9%

Question: And the “TEAEs leading to discontinuation of study drug” value (post-menopausal patients (8/152))?
Answer: 5.3%

Question: And the “TEAEs leading to withdrawal from the study” value (post-menopausal patients (9/152))?
Answer: 5.9%

Question: What about the “TEAEs leading to dose reduction” value (post-menopausal patients (16/152)) of the same molecule?
Answer: 10.5%

Question: And the “Share of patients with TEAEs that were mild or moderate” value (post-menopausal patients (90/102))?
Answer: 88.2%

Question: And the “Patients with at least 1 TEAE over the study duration” value (post-menopausal patients (102/152))?
Answer: 67.1%

Question: What about the “Mean (range) number of total treatment courses” value (post-menopausal patients, cycle 1 responders) of the same molecule?
Answer: 2.2 (1-5)

Question: And the Tolerability (post-menopausal women)?
Answer: generally well-tolerated
